The text below walks through data of patent US20050090396A1, “Herbicides based on substituted carboxylic acid anilides” (priority 2001, published 2005).

The test system of assay [1] is Hordeum vulgare (winter barley). Nature of the assay: Post-emergence test/greenhouse, damage to winter barley (HORVW). Format: in vivo. The protocol:
(§1) Post-Emergence Test/Greenhouse
Test plants are grown under controlled conditions (temperature and light).
(§2) Following the spray application, the plant containers are kept in the greenhouse under constant light and temperature conditions.
(§3) After five days (5d) and/or three weeks (21d), the degree of damage to the plants is rated in % damage in comparison to the development of the untreated control.

The subject of assay [2] is Triticum aestivum (winter wheat). Description: Post-emergence test/greenhouse, damage to winter wheat (TRZAW). Format: in vivo. As to the method: as §1
Test plants are grown under controlled conditions (temperature and light). Once the plants have reached a height of 5 to 15 cm, the test compound or the combination of test compounds is applied by spraying such that the particular amounts of active compound desired are applied per unit area. The concentration of the spray liquor is chosen so that the particular amounts of active compound desired are applied in 500 litres of water/ha.
as §2, §3
• 0%=no effect (like untreated control) • 100%=total destruction.
Unless indicated otherwise, the tests were carried out in the presence of 0.5% Renex 36. • a.i. denotes “active ingredient” (active compound). • HORVW denotes Hordeum vulgare (winter barley).
TRZAW denotes Triticum aestivum (winter wheat).

The mark [3] stands for this setting: 50 g of ai/ha, without addition of Renex 36.

For the compound `CCCCCC(C)OC(=O)COc1ccc(Cl)c2cccnc12` (stereo not shown) [cloquintocet-mexyl, 1-methylhexyl 5-chloroquinolin-8-oxyacetate, reference compound], in assay [1] (50 g of ai/ha, 0.5% Renex 36), the “degree of damage to the plants, HORVW 5d” value is given as 0% and the “degree of damage to the plants, HORVW 21d” value (“degree of damage … HORVW 21d” for short) is given as 0%. Besides, in assay [1] (setting [3]), the “degree of damage to the plants, HORVW 5d” value came to 0% and the “degree of damage … HORVW 21d” value came to 0%. In addition, in assay [2] (50 g of ai/ha, 0.5% Renex 36), the “degree of damage to the plants, TRZAW 5d” value was found to be 0% and the “degree of damage to the plants, TRZAW 21d” value (shortened to “degree of damage … TRZAW 21d”) worked out at 0%. Also, the “degree of damage to the plants, TRZAW 5d” value in assay [2] (setting [3]) is reported as 0%.

Take `CCS(=O)(=O)N(C(=O)CCc1ccc(F)c(F)c1)c1cc(-n2ncc(=O)n(C)c2=O)c(F)cc1C#N` [Ex. I-42]: the “degree of damage to the plants, HORVW 5d” value in assay [1] (15 g of ai/ha, 0.5% Renex 36) is 15%; in assay [1] (30 g of ai/ha, 0.5% Renex 36), 20%; in assay [1] (60 g of ai/ha, 0.5% Renex 36), 30%. Further, in assay [1] (60 g of ai/ha, 0.5% Renex 36), the “degree of damage … HORVW 21d” value turned out to be 20%.

Regarding `CCS(=O)(=O)N(C(=O)CCc1cccc(OC)c1)c1cc(-n2c(=O)cc(C(F)(F)F)n(C)c2=O)c(F)cc1C#N` [Ex. I-24], the “degree of damage to the plants, HORVW 5d” value in assay [1] (15 g of ai/ha, 0.5% Renex 36) amounted to 40%; in assay [1] (30 g of ai/ha, 0.5% Renex 36), 60%; in assay [1] (60 g of ai/ha, 0.5% Renex 36), 70%.

For the compound `CCS(=O)(=O)N(C(=O)C(C)=Cc1ccccc1)c1cc(-n2c(=O)cc(C(F)(F)F)n(C)c2=O)c(F)cc1C#N` [Ex. I-29], the “degree of damage to the plants, HORVW 5d” value in assay [1] (15 g of ai/ha, 0.5% Renex 36) is reported as 10%.

Turning to `CCOC(=O)C1=NOC(c2ccccc2)(c2ccccc2)C1` [isoxadifen, ethyl 4,5-dihydro-5,5-diphenyl-3-isoxazolecarboxylate, reference compound], in assay [1] (50 g of ai/ha, 0.5% Renex 36), the “degree of damage to the plants, HORVW 5d” value was 0% and the “degree of damage … HORVW 21d” value amounted to 0%. For the same compound, in assay [1] (setting [3]), the “degree of damage to the plants, HORVW 5d” value is recorded as 0% and the “degree of damage … HORVW 21d” value is 0%. Further, in assay [2] (50 g of ai/ha, 0.5% Renex 36), the “degree of damage to the plants, TRZAW 5d” value came to 0% and the “degree of damage … TRZAW 21d” value is 0%. Besides, in assay [2] (setting [3]), the “degree of damage to the plants, TRZAW 5d” value worked out at 0%.

Take `CCS(=O)(=O)N(C(=O)CCc1ccc(Cl)c(Cl)c1)c1cc(-n2c(=O)cc(C(F)(F)F)n(C)c2=O)c(F)cc1C#N` [Ex. I-2]: the “degree of damage to the plants, HORVW 5d” value turned out to be 40% in assay [1] (30 g of ai/ha, 0.5% Renex 36) and 60% in assay [1] (60 g of ai/ha, 0.5% Renex 36).

As for `CCS(=O)(=O)N(C(=O)C=Cc1ccccc1Cl)c1cc(-n2c(=O)cc(C(F)(F)F)n(C)c2=O)c(F)cc1C#N` [Ex. I-31], the “degree of damage to the plants, HORVW 5d” value in assay [1] (15 g of ai/ha, 0.5% Renex 36) is listed as 30%; in assay [1] (30 g of ai/ha, 0.5% Renex 36), 40%; in assay [1] (60 g of ai/ha, 0.5% Renex 36), 50%. Further, the “degree of damage to the plants, TRZAW 5d” value is 20% in assay [2] (30 g of ai/ha, 0.5% Renex 36) and 20% in assay [2] (60 g of ai/ha, 0.5% Renex 36).

Regarding `CCS(=O)(=O)N(C(=O)CCc1cccc(Cl)c1)c1cc(-n2c(=O)cc(C(F)(F)F)n(C)c2=O)c(F)cc1C#N` [Ex. I-33], in assay [1] (60 g of ai/ha, 0.5% Renex 36), the “degree of damage to the plants, HORVW 5d” value turned out to be 40%. Besides, the “degree of damage … HORVW 21d” value in assay [1] (30 g of ai/ha, 0.5% Renex 36) is on record as 15%; in assay [1] (60 g of ai/ha, 0.5% Renex 36), 20%. The “degree of damage to the plants, TRZAW 5d” value in assay [2] (60 g of ai/ha, 0.5% Renex 36) worked out at 25%. The “degree of damage … TRZAW 21d” value in assay [2] (30 g of ai/ha, 0.5% Renex 36) was 10%; in assay [2] (60 g of ai/ha, 0.5% Renex 36), 15%.

Turning to `Cn1c(C(F)(F)F)cc(=O)n(-c2cc(N(C(=O)C=Cc3ccccc3Cl)S(C)(=O)=O)c(C#N)cc2F)c1=O` [Ex. I-32], the “degree of damage to the plants, HORVW 5d” value in assay [1] (30 g of ai/ha, 0.5% Renex 36) is listed as 25%; in assay [1] (60 g of ai/ha, 0.5% Renex 36), 40%.

For the compound `Cn1c(C(F)(F)F)cc(=O)n(-c2cc(N(C(=O)CCc3ccc(F)c(F)c3)S(C)(=O)=O)c(C#N)cc2F)c1=O` [Ex. I-26], the “degree of damage … HORVW 21d” value in assay [1] (15 g of ai/ha, 0.5% Renex 36) is 10%; in assay [1] (30 g of ai/ha, 0.5% Renex 36), 20%; in assay [1] (60 g of ai/ha, 0.5% Renex 36) it was 40%. Besides, the “degree of damage … TRZAW 21d” value in assay [2] (30 g of ai/ha, 0.5% Renex 36) was determined as 20%; in assay [2] (60 g of ai/ha, 0.5% Renex 36) it was 30%.

Take `CCS(=O)(=O)N(C(=O)CC(C)c1ccccc1)c1cc(-n2ncc(=O)n(C)c2=O)c(F)cc1C#N` (stereo not shown) [Ex. I-40]: in assay [1] (60 g of ai/ha, 0.5% Renex 36), the “degree of damage to the plants, HORVW 5d” value worked out at 30% and the “degree of damage … HORVW 21d” value is 20%. In addition, the “degree of damage to the plants, TRZAW 5d” value in assay [2] (60 g of ai/ha, 0.5% Renex 36) came to 20%.

Turning to `CCS(=O)(=O)N(C(=O)CCc1ccc(F)cc1F)c1cc(-n2ncc(=O)n(C)c2=O)c(F)cc1C#N` [Ex. I-43], in assay [1] (15 g of ai/ha, without addition of Renex 36), the “degree of damage … HORVW 21d” value is on record as 10%. Besides, the “degree of damage to the plants, TRZAW 5d” value in assay [2] (15 g of ai/ha, 0.5% Renex 36) is on record as 15%; in assay [2] (30 g of ai/ha, 0.5% Renex 36), 15%.

Consider `CCOC(=O)C1=NN(c2ccc(Cl)cc2Cl)C(C)(C(=O)OCC)C1` (stereo not shown) [mefenpyr-diethyl, diethyl 1-(2,4-dichlorophenyl)-4,5-dihydro-5-methyl-1H-pyrazole-3,5-dicarboxylate, reference compound], for which, in assay [1] (50 g of ai/ha, 0.5% Renex 36), the “degree of damage to the plants, HORVW 5d” value is given as 0% and the “degree of damage … HORVW 21d” value amounted to 0%. Further, in assay [2] (50 g of ai/ha, 0.5% Renex 36), the “degree of damage to the plants, TRZAW 5d” value worked out at 0% and the “degree of damage … TRZAW 21d” value is on record as 0%.

For `CCS(=O)(=O)N(C(=O)COc1ccc(Cl)cc1Cl)c1cc(-n2c(=O)cc(C(F)(F)F)n(C)c2=O)c(F)cc1C#N` [Ex. I-1], the “degree of damage … HORVW 21d” value in assay [1] (30 g of ai/ha, 0.5% Renex 36) is listed as 20%; in assay [1] (60 g of ai/ha, 0.5% Renex 36) it was 40%.

On to `CCS(=O)(=O)N(C(=O)CCc1ccc(Cl)c(Cl)c1)c1cc(-n2ncc(=O)n(C)c2=O)c(F)cc1C#N` [Ex. I-14], for which the “degree of damage to the plants, HORVW 5d” value in assay [1] (60 g of ai/ha, 0.5% Renex 36) worked out at 30%. For the same compound, the “degree of damage to the plants, TRZAW 5d” value in assay [2] (60 g of ai/ha, 0.5% Renex 36) is on record as 20%.

On to `CCS(=O)(=O)N(C(=O)CCc1cccc(OC)c1)c1cc(-n2ncc(=O)n(C)c2=O)c(F)cc1C#N` [Ex. I-41], for which the “degree of damage to the plants, HORVW 5d” value in assay [1] (15 g of ai/ha, 0.5% Renex 36) came out at 20%; in assay [1] (30 g of ai/ha, 0.5% Renex 36), 25%.
